This passage reports IC50 and activity results from article PMC8741506 (Poultry Science, 2021).

Structures are written as SMILES. Some results are limits rather than exact numbers.

T1 sequence (P0C6Y3 1177-1499): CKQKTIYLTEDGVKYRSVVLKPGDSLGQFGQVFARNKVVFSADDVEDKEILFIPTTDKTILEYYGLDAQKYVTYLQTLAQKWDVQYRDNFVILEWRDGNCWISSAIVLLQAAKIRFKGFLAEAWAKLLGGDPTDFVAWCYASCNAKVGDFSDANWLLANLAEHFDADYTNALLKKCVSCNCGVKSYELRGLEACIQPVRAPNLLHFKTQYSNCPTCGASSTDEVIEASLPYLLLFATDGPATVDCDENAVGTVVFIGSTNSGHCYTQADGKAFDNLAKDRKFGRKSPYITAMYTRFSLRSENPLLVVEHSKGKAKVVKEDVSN

The first assay concerns the target T1, IBV PLpro (Avian infectious bronchitis virus (strain M41), UniProt P0C6Y3). Put plainly: UB-AMC deubiquitination, fluorescence kinetics. In kind it is biochemical.
Details: not given
Broadly, the IC50 is the concentration that inhibits the measured activity by half. High values mean weaker potency, low ones greater potency. `O=c1c(O)c(-c2cc(O)c(O)c(O)c2)oc2cc(O)cc(O)c12` [myricetin]: the IC50 is 10.6 µM.

The target of a further assay is T1, IBV PLpro. Put plainly: UB-AMC deubiquitination, fluorescence kinetics. In kind it is biochemical. The note with it: read-out: relative enzymatic activity at 100 μM.
With `O=c1cc(-c2ccccc2)oc2cc(O)c(O)c(O)c12` [baicalein], the activity at 100 µM was < 20%. `O=c1cc(-c2ccccc2)oc2cc(O)cc(O)c12` [chrysin]: the activity at 100 µM is < 20%. Take `COc1ccc(-c2oc3c(CC=C(C)C)c(O[C@@H]4O[C@H](CO)[C@@H](O)[C@H](O)[C@H]4O)cc(O)c3c(=O)c2O[C@@H]2O[C@@H](C)[C@H](O)[C@@H](O)[C@H]2O)cc1` [icariin]: the activity at 100 µM is < 20%.

For the compound `O=c1c2cc(O)c(O)cc2oc2cc(O)c([C@@H]3O[C@H](CO)[C@@H](O)[C@H](O)[C@H]3O)c(O)c12` [mangiferin], the activity at 100 µM is < 20%. Regarding `C[C@@H]1O[C@@H](O[C@H]2[C@H](Oc3cc(O)c4c(c3)O[C@H](c3ccc(O)cc3)CC4=O)O[C@H](CO)[C@@H](O)[C@@H]2O)[C@H](O)[C@H](O)[C@H]1O` [naringin], the activity at 100 µM is < 20%.
